From patent US20050069531A1, “Use of hyaluronidase in the manufacture of an ophthalmic preparation for liquefying vitreous humor in the treatment of eye disorders” (priority 1995, published 2005)
Read-outs that look alike come from different tables or passages of the source.

Test system: eyes of rabbits
Conditions: rabbit, intravitreal
Excerpt: Fifty-two (52) healthy rabbits of the New Zealand Cross Variety (26 male, 26 female) weighing 1.5 kg to 2.5 kg, were individually marked for identification and were housed individually in suspended cages. The animals received a commercially available pelleted rabbit feed on a daily basis, with tap water available ad libitum.
The animals were divided into thirteen groups of 4 animals each (2 male, 2 female). Two animals in each group (1 male, 1 female) were selected for pretreatment fundus photography and fluorescein angiography.
The fundus photography was performed by restraining the animals and visualizing the optic nerve, retinal arcades with fundus with a KOWA® RC-3 Fundus Camera loaded with Kodak Gold 200 ASA film.
The fluorescein angiography involved a 1.5 ml injection of 2% sterile fluorescein solution via the marginal ear vein. Approximately 30 seconds post-injection the fluorescein was visualized upon localization of the optic nerve, retinal vessels and fundus.
The following day, each animal was anesthetized by intravenous administration of a combination of 34 mg/kg of ketamine hydrochloride and 5 mg/kg xylazine. The eyelids were retracted using a lid speculum, and the eyes were disinfected with an iodine-providone wash.
The experimental treatments administered to each animal group were as follows:
The day following the injections (Day 1), the 26 animals which were subjected to the fundus photography and fluorescein angiography were observed using the same methods as for the pre-dose examination.
The eyes were then surgically removed and placed in a fixture solution of 2.5% glutaraldehyde with 0.1 M phosphate buffered saline at pH 7.37.
Alternatively, one randomly selected rabbit was euthanized by pentobarbital injection but then fixed by intracardiac injection of the glutaraldehyde solution into the left ventricle to determine the effect of the fixation procedure on the histology findings within the enucleated eyes.
On Day 7, the 13 female rabbits that had been previously photographed and angiography performed were subjected to the same observations following the methods previously described.
The remaining 26 animals were euthanized as described above 7 days after dosing. The eyes were fixed in the same manner as those which had been fixed on day 2. Also, one randomly selected rabbit was subjected to the same intracardiac glutaraldehyde fixation procedure described hereabove for the previously randomly selected animal.
The eyes of the animals treated in this example were examined grossly and microscopically for evidence of treatment-related toxicities.

**Q.** How did the “evidence of treatment-related toxicity in the eyes (gross and microscopic examination)” value (from here on “evidence of treatment-related toxicity”) (0.0075 mg thimerosal in BSS, day 2 post-dose) turn out when thimerosal [BSS+thimerosal] was run?
**A.** Its value is “free of toxicity”.

**Q.** And the “toxic effects observed on day 7 (FIG. 3)” value (0.0075 mg thimerosal in BSS, day 7)?
**A.** Its value is “significant toxic effects”.

**Q.** And the “evidence of treatment-related toxicity” value (0.0075 mg thimerosal in BSS, day 7 post-dose)?
**A.** The value was “breakdown of the blood-retinal barrier”.

**Q.** What about the “evidence of treatment-related toxicity” value (0.025 mg thimerosal in BSS, days 2 and 7 post-dose) of the same substance?
**A.** The value was “severe treatment-related toxic effects”.

**Q.** And the “toxic effects in the eyes of rabbits (conclusion)” value (at the dosages tested)?
**A.** The value was “do cause toxic effects”.
